Publication PMC4579270, “Identification and Characterization of an Irreversible Inhibitor of CDK2” (Chemistry & Biology, 2015)

Molecular target: T1, CDK2^K89V/cyclin A (Homo sapiens, UniProt P24941, K89V)
T1 construct: GST (N, cleaved yes); made in house; host or cells: Escherichia coli; phosphorylated in vitro by GST-CAK
Experiment: Bandshift kinase assay after incubation and dialysis, mutant
Type: biochemical
Method: The bandshift experiment was repeated after incubating CDK2^K88E/cyclin A and CDK2^K89V/cyclin A with NU6300, NU6310, or DMSO followed by dialysis to remove unbound inhibitor (Figure S2G).
Figure S2, Related to Figure 3. Identification of the site of CDK2 modification by NU6300. (A-G) Single site CDK2 mutants CDK2D86A, CDK2K88E, and CDK2K89V identify the site of CDK2 modification by NU6300. These mutations change the CDK2 sequence to that of CDK7 and are known not to disrupt the CDK2 fold. Mass spectra of CDK2 mutants: […]
(G) Protein kinase activity of authentic CDK2 and single site CDK2 mutants following incubation with NU6300 or NU6310. Samples were taken at the indicated number of minutes after initiation of the reaction. Note that compared to authentic CDK2, the single site Lys88 and Lys89 mutants have a slower rate of reaction (Compare LHS panels). This drop in activity was expected because whereas the wild type protein was produced by co-expression with S. cerevisiae […]
the mutant proteins were activated by S. cerevisiae CAK1 phosphorylation in vitro– a relatively inefficient process as judged from the results of ESI-MS (Table S1). (H) NU6300 […]
NU6300 carbon atoms are coloured green. Rb, retinoblastoma protein, Phospho-Rb, […]
Protein expression and purification
Site-directed mutagenesis of CDK2 was performed using the QuikChange II kit (Stratagene) following the manufacturer’s instructions and verified by DNA sequencing.
Wild-type CDK2 phosphorylated at Thr160, untagged human cyclin A2 (residues 174-432), S. cerevisiae GST–CAK, GST–3C-protease and GST–pRb (residues 792–928) were expressed and purified as previously described (Brown et al., 1999a; Brown et al., 1999b; Welburn and Endicott, 2005). […]
CDK2/cyclin A (200 µM) was incubated overnight with 1 mM inhibitor or DMSO, and then dialysed for 8 h with regular replacement of dialysis buffer into HEPES-buffered saline (50 mM HEPES, pH 7.5, 250 mM NaCl, 0.02% MTG). […] Reactions were stopped by addition of SDS-PAGE loading buffer and analyzed by SDS-PAGE. […]

Row | Compound | CDK2 activity against Rb after incubation with inhibitor and dialysis
1 | C=CS(=O)(=O)c1ccc(Nc2nc(OCC3CCCCC3)c3nc[nH]c3n2)cc1 [NU6300, 6-(cyclohexylmethoxy)-N-(4-(vinylsulfonyl)phenyl)-9H-purin-2-amine] | recovered activity
2 | CCS(=O)(=O)c1ccc(Nc2nc(OCC3CCCCC3)c3nc[nH]c3n2)cc1 [NU6310, 6-(cyclohexylmethoxy)-N-(4-(ethylsulfonyl)phenyl)-9H-purin-2-amine] | recovered their activity
